Assay results from patent publication US10160747B2, “Compounds and methods for kinase modulation, and indications therefor” (Plexxikon Inc., priority 2016, dated 2018).

How the values were obtained:
FLT3-D835Y = target: T1, FLT3-D835Y (Homo sapiens, UniProt P36888, D835Y); test: FLT3-D835Y recombinant enzyme kinase assay (AlphaScreen); assay type: biochemical; conditions: 8 pt, GMean
T1 construct: purchased Invitrogen PV3967
T1 sequence (P36888 27-993 D835Y): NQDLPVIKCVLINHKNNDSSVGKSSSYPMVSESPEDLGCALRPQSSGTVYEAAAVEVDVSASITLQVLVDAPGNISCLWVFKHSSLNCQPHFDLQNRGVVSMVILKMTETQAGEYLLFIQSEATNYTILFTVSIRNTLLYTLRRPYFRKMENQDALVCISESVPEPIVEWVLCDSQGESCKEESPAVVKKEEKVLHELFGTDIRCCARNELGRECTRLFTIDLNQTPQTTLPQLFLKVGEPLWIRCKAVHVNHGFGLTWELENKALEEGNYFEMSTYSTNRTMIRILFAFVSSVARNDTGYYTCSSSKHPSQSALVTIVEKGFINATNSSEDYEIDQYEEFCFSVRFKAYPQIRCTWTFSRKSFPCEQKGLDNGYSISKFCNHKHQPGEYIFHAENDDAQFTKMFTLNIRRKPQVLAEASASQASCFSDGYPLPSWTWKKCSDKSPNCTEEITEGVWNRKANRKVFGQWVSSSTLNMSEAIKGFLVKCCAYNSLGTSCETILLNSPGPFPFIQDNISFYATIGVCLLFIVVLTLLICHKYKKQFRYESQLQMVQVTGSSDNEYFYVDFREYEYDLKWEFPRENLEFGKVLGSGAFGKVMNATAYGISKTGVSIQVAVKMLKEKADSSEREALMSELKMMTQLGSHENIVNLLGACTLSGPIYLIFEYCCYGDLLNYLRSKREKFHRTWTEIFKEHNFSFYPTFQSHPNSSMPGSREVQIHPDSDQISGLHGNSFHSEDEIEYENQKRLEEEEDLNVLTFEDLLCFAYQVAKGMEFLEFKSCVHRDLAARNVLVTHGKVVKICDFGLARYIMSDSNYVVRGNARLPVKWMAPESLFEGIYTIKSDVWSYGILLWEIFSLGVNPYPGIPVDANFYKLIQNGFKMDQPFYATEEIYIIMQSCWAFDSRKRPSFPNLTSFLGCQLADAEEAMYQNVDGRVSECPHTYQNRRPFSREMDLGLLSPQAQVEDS
Procedure, shortened: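 IC50 values are derived from reduced AlphaScreen signal as inhibitors block tyrosine phosphorylation of a biotinylated poly(Glu4-Tyr) peptide (30 nM) by recombinant kinase. FLT3 variants are run at 10 μM ATP, c-KIT at 100 μM.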

[1] = system: MOLM-14 D835Y (endogenous FLT3 ITD and transfected FLT3 D835Y); test: MOLM-14 D835Y cell proliferation assay (CellTiter-Glo); assay type: cell-based; conditions: Homo sapiens, MOLM-14, 72 h; 3 d growth, GMean
Procedure, shortened: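 Three-day proliferation at 37 °C/5% CO2 of FLT3-ITD MOLM-14 lines with D835Y or F691L mutation, seeded 1×10^4 per well. Compounds at eight points, top 1 μM final, 0.2% DMSO. ATP luminescence (CellTiter-Glo) gives IC50.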

Row | IC50 (FLT3-D835Y) [µM] | IC50 [1] [µM] | SMILES
1 | 0.0001 to 10 | 0.0001 to 10 | Cn1cc(Nc2ncc(-c3ccc(CC(=O)Nc4ccc(C(F)(F)F)cn4)cc3)cn2)cn1 [Compound P-0109, 2-[4-[2-[(1-methylpyrazol-4-yl)amino]pyrimidin-5-yl]phenyl]-N-[5-(trifluoromethyl)-2-pyridyl]acetamide]
2 | 0.0001 to 10 | 0.0001 to 10 | Cn1cc(Nc2ncc(-c3ccc(CC(=O)Nc4ccc(C(F)(F)F)cn4)c(F)c3)cn2)cn1 [Compound P-0106, 2-[2-fluoro-4-[2-[(1-methylpyrazol-4-yl)amino]pyrimidin-5-yl]phenyl]-N-[5-(trifluoromethyl)-2-pyridyl]acetamide]
3 | 0.0001 to 10 | 0.0001 to 10 | Cn1cnc(Nc2ncc(-c3ccc(CC(=O)Nc4cncc(C(C)(F)F)c4)c(F)c3)cn2)c1 [Compound P-0103, N-[5-(1,1-difluoroethyl)-3-pyridyl]-2-[2-fluoro-4-[2-[(1-methylimidazol-4-yl)amino]pyrimidin-5-yl]phenyl]acetamide]
4 | 0.0001 to 10 | 0.0001 to 10 | Cn1cnc(Nc2ncc(-c3ccc(CC(=O)Nc4cnc(F)c(C(C)(F)F)c4)cc3F)cn2)c1 [Compound P-0170, N-[5-(1,1-difluoroethyl)-6-fluoro-3-pyridyl]-2-[3-fluoro-4-[2-[(1-methylimidazol-4-yl)amino]pyrimidin-5-yl]phenyl]acetamide]
5 | 0.0001 to 10 | 0.0001 to 10 | COc1nn(C[C@H](C)O)cc1Nc1ncc(-c2ccc(CC(=O)Nc3cnc(C)c(C(F)(F)F)c3)cc2)cn1 [Compound P-0180, 2-[4-[2-[[1-[(2S)-2-hydroxypropyl]-3-methoxy-pyrazol-4-yl]amino]pyrimidin-5-yl]phenyl]-N-[6-methyl-5-(trifluoromethyl)-3-pyridyl]acetamide]
6 | 0.0001 to 10 | 0.0001 to 10 | N#Cc1ccc(-c2cc3cc(-c4ccc(CC(=O)Nc5cncc(C(F)(F)F)c5)cc4F)cnc3[nH]2)cn1 [Compound P-0195, 2-[4-[2-(6-cyano-3-pyridyl)-1H-pyrrolo[2,3-b]pyridin-5-yl]-3-fluoro-phenyl]-N-[5-(trifluoromethyl)-3-pyridyl]acetamide]
7 | 0.0001 to 10 | 0.0001 to 10 | Cn1cc(Nc2ncc(-c3ccc(CC(=O)Nc4cc(Cl)c(C5CC5)cn4)c(F)c3)cn2)cn1 [Compound P-0107, N-(4-chloro-5-cyclopropyl-2-pyridyl)-2-[2-fluoro-4-[2-[(1-methylpyrazol-4-yl)amino]pyrimidin-5-yl]phenyl]acetamide]
8 | 0.0001 to 10 | 0.0001 to 10 | CCc1cncc(NC(=O)Cc2ccc(-c3cnc(Nc4cnn(C)c4)nc3)cc2F)c1 [Compound P-0111, N-(5-ethyl-3-pyridyl)-2-[2-fluoro-4-[2-[(1-methylpyrazol-4-yl)amino]pyrimidin-5-yl]phenyl]acetamide]
9 | 0.0001 to 10 | 0.0001 to 10 | Cn1cc(Nc2ncc(-c3ccc(CC(=O)NCc4cncc(C(F)(F)F)c4)cc3)cn2)cn1 [Compound P-0161, 2-[4-[2-[(1-methylpyrazol-4-yl)amino]pyrimidin-5-yl]phenyl]-N-[[5-(trifluoromethyl)-3-pyridyl]methyl]acetamide]
10 | 0.0001 to 10 | 0.0001 to 10 | Cc1ncc(NC(=O)Cc2ccc(-c3cnc(Nc4cnn(C)c4)nc3)cc2)cc1C(F)(F)F [Compound P-0140, 2-[4-[2-[(1-methylpyrazol-4-yl)amino]pyrimidin-5-yl]phenyl]-N-[6-methyl-5-(trifluoromethyl)-3-pyridyl]acetamide]
11 | 0.0001 to 10 | 0.0001 to 10 | COc1cncc(NC(=O)Cc2ccc(-c3cnc(Nc4cnn(C)c4)nc3)cc2)c1 [Compound P-0133, N-(5-methoxy-3-pyridyl)-2-[4-[2-[(1-methylpyrazol-4-yl)amino]pyrimidin-5-yl]phenyl]acetamide]
12 | 0.0001 to 10 | 0.0001 to 10 | Cn1cc(Nc2ncc(-c3ccc(CC(=O)Nc4cccc(C(F)(F)F)c4)cc3)cn2)cn1 [Compound P-0141, 2-[4-[2-[(1-methylpyrazol-4-yl)amino]pyrimidin-5-yl]phenyl]-N-[3-(trifluoromethyl)phenyl]acetamide]
13 | 0.0001 to 10 | 0.0001 to 10 | O=C(Cc1ccc(-c2cnc3[nH]c(-c4ccnc(N5CCOCC5)c4)cc3c2)cn1)Nc1ccnc(C(F)(F)F)c1 [Compound P-0181, 2-[5-[2-(2-morpholino-4-pyridyl)-1H-pyrrolo[2,3-b]pyridin-5-yl]-2-pyridyl]-N-[2-(trifluoromethyl)-4-pyridyl]acetamide]
14 | 0.0001 to 10 | 0.0001 to 10 | Cn1cc(Nc2ncc(-c3ccc(CC(=O)Nc4ccc(C(F)(F)F)c(F)c4)cc3)cn2)cn1 [Compound P-0142, N-[3-fluoro-4-(trifluoromethyl)phenyl]-2-[4-[2-[(1-methylpyrazol-4-yl)amino]pyrimidin-5-yl]phenyl]acetamide]
15 | 0.0001 to 10 | 0.0001 to 10 | Cn1cc(Nc2ncc(-c3ccc(CC(=O)Nc4cccc(OC(F)(F)F)c4)cc3)cn2)cn1 [Compound P-0157, 2-[4-[2-[(1-methylpyrazol-4-yl)amino]pyrimidin-5-yl]phenyl]-N-[3-(trifluoromethoxy)phenyl]acetamide]
16 | 0.0001 to 10 | 0.0001 to 10 | Cn1cc(Nc2ncc(-c3ccc(CC(=O)Nc4cc(C(F)(F)F)ccn4)cc3)cn2)cn1 [Compound P-0139, 2-[4-[2-[(1-methylpyrazol-4-yl)amino]pyrimidin-5-yl]phenyl]-N-[4-(trifluoromethyl)-2-pyridyl]acetamide]
17 | 0.0001 to 10 | 0.0001 to 10 | Cc1n[nH]c2ncc(-c3cc(F)c(CC(=O)Nc4cncc(C(F)(F)F)c4)cc3F)cc12 [Compound P-0173, 2-[2,5-difluoro-4-(3-methyl-1H-pyrazolo[3,4-b]pyridin-5-yl)phenyl]-N-[5-(trifluoromethyl)-3-pyridyl]acetamide]
18 | 0.0001 to 10 | 0.0001 to 10 | CC(C)c1cc(NC(=O)Cc2ccc(-c3cnc(Nc4cnn(C)c4)nc3)cc2F)ccn1 [Compound P-0094, 2-[2-fluoro-4-[2-[(1-methylpyrazol-4-yl)amino]pyrimidin-5-yl]phenyl]-N-(2-isopropyl-4-pyridyl)acetamide]
